Experimental data: US20110082114A1, “Methods of Treating Aneurysmal Dilatation, Blood Vessel Wall Weakness and Specifically Abdominal Aortic and Thoracic Aneurysm Using Matrix Metalloprotease-2 Inhibitors” (SYMPHONY EVOLUTION, INC., priority 2009, published 2011)

Target: T1, mADAM-10 or hADAM-10 (UniProt O14672)
T1 sequence (O14672 1-748): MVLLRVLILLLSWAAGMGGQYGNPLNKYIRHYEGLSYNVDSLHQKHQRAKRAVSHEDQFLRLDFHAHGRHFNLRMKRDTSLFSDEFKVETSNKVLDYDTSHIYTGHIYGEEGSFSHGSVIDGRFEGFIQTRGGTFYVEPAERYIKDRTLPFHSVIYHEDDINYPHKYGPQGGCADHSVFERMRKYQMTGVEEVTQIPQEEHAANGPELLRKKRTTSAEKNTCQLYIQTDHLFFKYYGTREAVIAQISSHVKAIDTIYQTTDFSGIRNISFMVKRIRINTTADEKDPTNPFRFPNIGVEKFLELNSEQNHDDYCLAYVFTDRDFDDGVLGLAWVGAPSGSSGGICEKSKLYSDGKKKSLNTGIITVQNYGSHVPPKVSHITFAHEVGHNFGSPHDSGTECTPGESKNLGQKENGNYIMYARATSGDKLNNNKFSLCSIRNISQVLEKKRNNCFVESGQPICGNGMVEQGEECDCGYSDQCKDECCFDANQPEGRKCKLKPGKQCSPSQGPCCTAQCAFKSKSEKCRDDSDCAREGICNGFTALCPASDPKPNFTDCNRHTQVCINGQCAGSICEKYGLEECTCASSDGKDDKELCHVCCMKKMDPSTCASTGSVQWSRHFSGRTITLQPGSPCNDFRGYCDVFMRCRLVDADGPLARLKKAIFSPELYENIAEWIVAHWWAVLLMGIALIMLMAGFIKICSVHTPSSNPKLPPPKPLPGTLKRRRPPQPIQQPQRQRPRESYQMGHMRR
Test: ADAM-10 enzyme assay (fluorogenic peptide cleavage);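 note: fluorescence from cleavage of a quenched 10-residue DABCYL/EDANS peptide by 5 nM enzyme in HEPES pH 8.0 buffer, 16 hr at room temperature, compounds serially diluted 100 µM to 0.5 nM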
Type: biochemical
Description: mADAM-10 or hADAM-10 activity was measured as the ability to cleave a 10-residue peptide (DABCYL-Leu-Leu-Ala-Gln-Lys-*-Leu-Arg-Ser-Ser-Arg-EDANS). […] Enzyme was diluted to a final active concentration of 5 nM in Buffer A (50 mM HEPES 8.0, 100 mM NaCl, 1 mM CaCl2 and 0.01% NP-40). Serial dilutions for compounds were performed ranging from 100 μM to 0.5 nM using a Beckman Biomek 2000 in polypropylene plates (Greiner). […] This reaction was incubated for 16 hr at RT and fluorescence was read using identical conditions.

IC50 [nM] | SMILES
< 50 | O=C(NO)[C@H]1CN(C(=O)N2CCOCC2)CCN1S(=O)(=O)c1ccc(Oc2ccc(Cl)cc2)c(F)c1 [Entry 6]
< 50 | O=C(NO)[C@H]1CN(C(=O)NCCN2CCCC2)CCN1S(=O)(=O)c1cc(F)c(Oc2ccc(Cl)cc2)c(F)c1 [Entry 17]
< 50 | O=C(NO)[C@H]1CN(C(=O)OCCN2CCCC2)CCN1S(=O)(=O)c1cc(F)c(Oc2ccc(Cl)cc2)c(F)c1 [Entry 18]
< 50 | CNC(=O)CN1CCN(S(=O)(=O)c2cc(F)c(Oc3ccc(Cl)cc3)c(F)c2)[C@@H](C(=O)NO)C1 [Entry 19]
< 50 | O=C(NO)[C@H]1CN(CC(=O)N2CCCC2)CCN1S(=O)(=O)c1cc(F)c(Oc2ccc(Cl)cc2)c(F)c1 [Entry 21]
< 50 | CN1CCC(OC(=O)N2CCN(S(=O)(=O)c3cc(F)c(Oc4ccc(Cl)cc4)c(F)c3)[C@@H](C(=O)NO)C2)CC1 [Entry 22]
< 50 | CCOC(=O)N1CCN(CC(=O)N2CCN(S(=O)(=O)c3cc(F)c(Oc4ccc(Cl)cc4)c(F)c3)[C@@H](C(=O)NO)C2)CC1 [Entry 23]
< 50 | O=C(NO)[C@H]1CN(C(=O)CN2CCOCC2)CCN1S(=O)(=O)c1cc(F)c(Oc2ccc(Cl)cc2)c(F)c1 [Entry 25]
< 50 | O=C(NO)[C@H]1CN(C(=O)CN2CCCCC2)CCN1S(=O)(=O)c1cc(F)c(Oc2ccc(Cl)cc2)c(F)c1 [Entry 26]
< 50 | O=C(NO)[C@H]1CN(C(=O)OCCN2CCCCC2)CCN1S(=O)(=O)c1cc(F)c(Oc2ccc(Cl)cc2)c(F)c1 [Entry 27]
< 50 | O=C(NO)[C@H]1CN(C(=O)C(=O)N2CCOCC2)CCN1S(=O)(=O)c1cc(F)c(Oc2ccc(Cl)cc2)c(F)c1 [Entry 31]
< 50 | O=C(CCl)NC(=O)N1CCN(S(=O)(=O)c2cc(F)c(Oc3ccc(Cl)cc3)c(F)c2)[C@@H](C(=O)NO)C1 [Entry 33]
< 50 | CN(C)S(=O)(=O)N1CCN(S(=O)(=O)c2cc(F)c(Oc3ccc(Cl)cc3)c(F)c2)[C@@H](C(=O)NO)C1 [Entry 36]
< 50 | O=C(NO)[C@H]1CN(S(=O)(=O)c2cc(F)c(O)c(F)c2)CCN1S(=O)(=O)c1cc(F)c(Oc2ccc(Cl)cc2)c(F)c1 [Entry 41]
< 50 | O=C(NO)[C@H]1CN(C(=O)c2ccncc2)CCN1S(=O)(=O)c1cc(F)c(Oc2ccc(Cl)cc2)c(F)c1 [Entry 42]
1000 to 20000 | CN(C)c1ccc2c(S(=O)(=O)N3CCN(S(=O)(=O)c4cc(F)c(Oc5ccc(Cl)cc5)c(F)c4)[C@@H](C(=O)NO)C3)cccc2c1 [Entry 49]
< 50 | O=C(NO)[C@H]1CN(S(=O)(=O)CCN2CCCCC2)CCN1S(=O)(=O)c1cc(F)c(Oc2ccc(Cl)cc2)c(F)c1 [Entry 53]
50 to 1000 | O=C(NO)[C@H]1CN(S(=O)(=O)CCN2CCOCC2)CCN1S(=O)(=O)c1cc(F)c(Oc2ccc(Cl)cc2)c(F)c1 [Entry 57]
< 50 | O=C(NO)[C@H]1CN(C(=O)c2cccnc2)CCN1S(=O)(=O)c1cc(F)c(Oc2ccc(Cl)cc2)c(F)c1 [Entry 59]

Second part, the compound before the results:

SMILES | IC50 [nM]
COCCOC(=O)N1CCN(S(=O)(=O)c2ccc(Oc3ccc(F)cc3)cc2)[C@@H](C(=O)NO)C1 [Entry 1] | < 50
O=C(NO)[C@H]1CN(C(=O)N2CCOCC2)CCN1S(=O)(=O)c1ccc(Oc2ccc(F)cc2)cc1 [Entry 2] | < 50
COCCOC(=O)N1CCN(S(=O)(=O)c2ccc(Oc3ccc(F)cc3)c(F)c2)[C@@H](C(=O)NO)C1 [Entry 3] | < 50
COCCOC(=O)N1CCN(S(=O)(=O)c2ccc(Oc3ccc(Cl)cc3)c(F)c2)[C@@H](C(=O)NO)C1 [Entry 4] | < 50
COCCOC(=O)N1CCN(S(=O)(=O)c2ccc(Oc3ccc(C#N)cc3)c(F)c2)[C@@H](C(=O)NO)C1 [Entry 5] | < 50
N#Cc1ccc(Oc2ccc(S(=O)(=O)N3CCN(C(=O)N4CCOCC4)C[C@@H]3C(=O)NO)cc2F)cc1 [Entry 7] | < 50
O=C(NO)[C@H]1CN(C(=O)N2CCOCC2)CCN1S(=O)(=O)c1ccc(Oc2ccc(F)cc2)c(F)c1 [Entry 8] | < 50
CC(C)(C)OC(=O)N1CCN(S(=O)(=O)c2cc(F)c(Oc3ccc(F)cc3)c(F)c2)[C@@H](C(=O)NO)C1 [Entry 9] | < 50
COCCOC(=O)N1CCN(S(=O)(=O)c2cc(F)c(Oc3ccc(F)cc3)c(F)c2)[C@@H](C(=O)NO)C1 [Entry 10] | < 50
O=C(NO)[C@H]1CNCCN1S(=O)(=O)c1cc(F)c(Oc2ccc(F)cc2)c(F)c1 [Entry 11] | 50 to 1000
O=C(NO)[C@H]1CN(C(=O)N2CCOCC2)CCN1S(=O)(=O)c1cc(F)c(Oc2ccc(F)cc2)c(F)c1 [Entry 12] | < 50
CCOC(=O)N1CCN(S(=O)(=O)c2cc(F)c(Oc3ccc(F)cc3)c(F)c2)[C@@H](C(=O)NO)C1 [Entry 13] | < 50
CN1CCN(S(=O)(=O)c2cc(F)c(Oc3ccc(F)cc3)c(F)c2)[C@@H](C(=O)NO)C1 [Entry 14] | 50 to 1000
CN1CCN(C(=O)N2CCN(S(=O)(=O)c3cc(F)c(Oc4ccc(Cl)cc4)c(F)c3)[C@@H](C(=O)NO)C2)CC1 [Entry 16] | < 50
CN(C)C(=O)CN1CCN(S(=O)(=O)c2cc(F)c(Oc3ccc(Cl)cc3)c(F)c2)[C@@H](C(=O)NO)C1 [Entry 20] | < 50
CN1CCN(CC(=O)N2CCN(S(=O)(=O)c3cc(F)c(Oc4ccc(Cl)cc4)c(F)c3)[C@@H](C(=O)NO)C2)CC1 [Entry 24] | < 50
CS(=O)(=O)N1CCN(S(=O)(=O)c2cc(F)c(Oc3ccc(Cl)cc3)c(F)c2)[C@@H](C(=O)NO)C1 [Entry 28] | < 50
COCCN1CCN(S(=O)(=O)c2cc(F)c(Oc3ccc(Cl)cc3)c(F)c2)[C@@H](C(=O)NO)C1 [Entry 29] | < 50
O=C(NO)[C@H]1CN(C(=O)N2CCOCC2)CCN1S(=O)(=O)c1cc(F)c(Oc2ccc(Cl)cc2)c(F)c1 [Entry 30] | < 50
O=C(NO)[C@H]1CN(C(=O)OCc2ccccc2)CCN1S(=O)(=O)c1cc(F)c(Oc2ccc(Cl)cc2)c(F)c1 [Entry 32] | < 50

SMILES | IC50 [nM]
O=C(NO)[C@H]1CN(S(=O)(=O)Cc2ccncc2)CCN1S(=O)(=O)c1cc(F)c(Oc2ccc(Cl)cc2)c(F)c1 [Entry 34] | < 50
O=C(NO)[C@H]1CN(C(=O)C(=O)N2CCCCC2)CCN1S(=O)(=O)c1cc(F)c(Oc2ccc(Cl)cc2)c(F)c1 [Entry 35] | < 50
O=C(NO)[C@H]1CN(S(=O)(=O)NC(=O)N2CCCCC2)CCN1S(=O)(=O)c1cc(F)c(Oc2ccc(Cl)cc2)c(F)c1 [Entry 37] | < 50
O=C(NO)[C@H]1CN(S(=O)(=O)NC(=O)N2CCOCC2)CCN1S(=O)(=O)c1cc(F)c(Oc2ccc(Cl)cc2)c(F)c1 [Entry 38] | < 50
CN1CCN(C(=O)NS(=O)(=O)N2CCN(S(=O)(=O)c3cc(F)c(Oc4ccc(Cl)cc4)c(F)c3)[C@@H](C(=O)NO)C2)CC1 [Entry 39] | < 50
COCCOC(=O)N1CCN(S(=O)(=O)c2cc(F)c(Oc3ccccc3)c(F)c2)[C@@H](C(=O)NO)C1 [Entry 40] | < 50
CCCCCCC(=O)N1CCN(S(=O)(=O)c2cc(F)c(Oc3ccc(Cl)cc3)c(F)c2)[C@@H](C(=O)NO)C1 [Entry 43] | < 50
CCCC(CCC)C(=O)N1CCN(S(=O)(=O)c2cc(F)c(Oc3ccc(Cl)cc3)c(F)c2)[C@@H](C(=O)NO)C1 [Entry 44] | < 50
O=C(NO)[C@H]1CN(S(=O)(=O)c2cccnc2O)CCN1S(=O)(=O)c1cc(F)c(Oc2ccc(Cl)cc2)c(F)c1 [Entry 45] | < 50
O=C(CN1CCOCC1)NC(=O)N1CCN(S(=O)(=O)c2cc(F)c(Oc3ccc(Cl)cc3)c(F)c2)[C@@H](C(=O)NO)C1 [Entry 46] | < 50
O=C(NO)[C@H]1CN(C(=O)Cc2cccnc2)CCN1S(=O)(=O)c1cc(F)c(Oc2ccc(Cl)cc2)c(F)c1 [Entry 47] | < 50
O=C(NO)[C@H]1CN(S(=O)(=O)c2cccc3cnccc23)CCN1S(=O)(=O)c1cc(F)c(Oc2ccc(Cl)cc2)c(F)c1 [Entry 48] | < 50
CN(C)c1ccc2ccc(S(=O)(=O)N3CCN(S(=O)(=O)c4cc(F)c(Oc5ccc(Cl)cc5)c(F)c4)[C@@H](C(=O)NO)C3)cc2c1 [Entry 50] | 1000 to 20000
O=C(NO)[C@H]1CN(C(=O)c2ccc(-c3ccccc3)cc2)CCN1S(=O)(=O)c1cc(F)c(Oc2ccc(Cl)cc2)c(F)c1 [Entry 51] | 50 to 1000
O=C(NO)[C@H]1CN(C(=O)Cc2ccncc2)CCN1S(=O)(=O)c1cc(F)c(Oc2ccc(Cl)cc2)c(F)c1 [Entry 52] | < 50
CN(C)CCS(=O)(=O)N1CCN(S(=O)(=O)c2cc(F)c(Oc3ccc(Cl)cc3)c(F)c2)[C@@H](C(=O)NO)C1 [Entry 54] | < 50
CN1CCN(CCS(=O)(=O)N2CCN(S(=O)(=O)c3cc(F)c(Oc4ccc(Cl)cc4)c(F)c3)[C@@H](C(=O)NO)C2)CC1 [Entry 55] | < 50
CCOC(=O)N1CCN(CCS(=O)(=O)N2CCN(S(=O)(=O)c3cc(F)c(Oc4ccc(Cl)cc4)c(F)c3)[C@@H](C(=O)NO)C2)CC1 [Entry 56] | < 50
O=C(NO)[C@H]1CN(C(=O)N2CCOCC2)CCN1S(=O)(=O)c1ccc(-c2cccc(F)c2)nc1 [Entry 58] | < 50
CN(C)c1cccc2c(S(=O)(=O)N3CCN(S(=O)(=O)c4cc(F)c(Oc5ccc(Cl)cc5)c(F)c4)[C@@H](C(=O)NO)C3)cccc12 [Entry 60] | 50 to 1000
